Measured values reported in PubChem BioAssay (NCI).
Values joined by “and” are separate entries in the source; they are usually repeats but may differ in a detail not shown here. Equal entries are not always repeated.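 The compound was tested at five concentrations on cells cultured in 96-well plates, with a 48-hour exposure period. GI50 = concentration required for 50% inhibition of growth. At the TGI there is no net growth.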

Assays:
Test in all cases: NCI-60 cell line screen, 48 h
ACHN renal = tested on: ACHN renal
CAKI-1 renal = tested on: CAKI-1 renal
EKVX NSCLC = tested on: EKVX NSCLC
HCT-116 colon = tested on: HCT-116 colon
LOX IMVI melanoma = tested on: LOX IMVI melanoma
MDA-MB-435 = tested on: MDA-MB-435
NCI-H522 lung = tested on: NCI-H522 lung
OVCAR-4 ovarian = tested on: OVCAR-4 ovarian
OVCAR-8 ovarian = tested on: OVCAR-8 ovarian
U251 CNS = tested on: U251 CNS

| Structure (SMILES) | TGI (ACHN renal) | TGI (CAKI-1 renal) | TGI (EKVX NSCLC) | TGI (HCT-116 colon) | TGI (LOX IMVI melanoma) | TGI (MDA-MB-435) | TGI (NCI-H522 lung) | TGI (OVCAR-4 ovarian) | TGI (OVCAR-8 ovarian) | TGI (U251 CNS) | GI50 (ACHN renal) | GI50 (CAKI-1 renal) | GI50 (EKVX NSCLC) | GI50 (HCT-116 colon) | GI50 (MDA-MB-435) | GI50 (NCI-H522 lung) | GI50 (OVCAR-4 ovarian) | GI50 (LOX IMVI melanoma) | GI50 (OVCAR-8 ovarian) | GI50 (U251 CNS) |
| --- | --- | --- | --- | --- | --- | --- | --- | --- | --- | --- | --- | --- | --- | --- | --- | --- | --- | --- | --- | --- |
| O=C(c1cc(Cl)cc(Cl)c1)N(Cc1cccnc1)C(=S)N(Cc1cccnc1)C(=O)c1cc(Cl)cc(Cl)c1 | 47.3 µM | > 100 µM | > 100 µM | 96.5 µM | > 100 µM | > 100 µM | 49 µM | 89.6 µM | 79.5 µM | 61.3 µM |  |  |  |  |  |  |  |  |  |  |
| CC[C@@]1(O)C(=O)OCc2c1cc1n(c2=O)Cc2cc3c(CN(C)C)c(O)ccc3nc2-1 |  |  |  | 18.9 µM and 11.7 µM | 362 nM [middle of 4 runs] |  |  |  |  |  | < 0.01 µM and 0.00474 µM and 0.0188 µM | < 0.01 µM and 0.00506 µM | 0.452 µM and 0.468 µM and 2.16 µM | 0.0681 µM | 0.0713 µM and 0.108 µM and 0.0243 µM | < 0.025 µM and 0.0206 µM and 0.0416 µM | 0.319 µM and 0.812 µM and 0.571 µM |  |  |  |
| O=c1ccn(Cc2ccccc2CCl)c(=O)[nH]1 | 75.6 µM | 64 µM | 59.6 µM | 46 µM |  | 96.5 µM | 43.9 µM | > 100 µM | 55.8 µM | 85.2 µM |  |  |  |  |  |  |  |  |  |  |
| O=c1ccc2c(Cl)cccc2o1 | > 100 µM | > 100 µM | > 100 µM | > 100 µM | > 100 µM | > 100 µM | > 100 µM | > 100 µM | > 100 µM | > 100 µM |  |  |  |  |  |  |  |  |  |  |
| O=c1oc2ccc3ccccc3c2cc1-c1nc(-c2ccc([N+](=O)[O-])cc2)n[nH]1 | > 100 µM | > 100 µM | > 100 µM | > 100 µM | > 100 µM | > 100 µM | > 100 µM | > 100 µM | 94.6 µM | > 100 µM |  |  |  |  |  |  |  |  |  |  |
| O=C(CC(Cc1ccccc1)c1ccc(Oc2ccccc2)cc1)Nc1cccc(Cl)c1 (centres undefined) | 27.1 µM | > 100 µM | > 100 µM | > 100 µM | 49.2 µM | > 100 µM | 26.5 µM | > 100 µM | > 100 µM | > 100 µM |  |  |  |  |  |  |  |  |  |  |
| Fc1cc(C2=Nn3c(CNc4ccc(Cl)cc4)nnc3S/C2=C\c2ccc(-c3ccc(Cl)cc3)o2)c(Cl)cc1Cl | > 100 µM | 72.4 µM | 67.8 µM | > 100 µM | > 100 µM | > 100 µM | > 100 µM |  | > 100 µM | 57.6 µM |  |  |  |  |  |  |  |  |  |  |
| CC(C)(C)CNCCCNc1ccc(Cl)cc1 | > 100 µM |  | > 100 µM | > 100 µM | 46.9 µM | 68.2 µM | > 100 µM | > 100 µM | > 100 µM | > 100 µM |  |  |  |  |  |  |  |  |  |  |
| OC(c1ccccc1)C1CC2C=CC1C2 (centres undefined) | > 100 µM | > 100 µM | > 100 µM | > 100 µM | > 100 µM |  | > 100 µM | > 100 µM | > 100 µM | > 100 µM |  |  |  |  |  |  |  |  |  |  |
| Clc1ccc(OCc2nnc3sc(SSc4nn5c(COc6ccc(Cl)cc6)nnc5s4)nn23)cc1 | > 100 µM | > 100 µM | > 100 µM | > 100 µM | > 100 µM | > 100 µM | > 100 µM | > 100 µM | > 100 µM | > 100 µM |  | 77.3 µM |  |  |  |  | 46.7 µM |  |  |  |
| CSC1=C(SC)C(=O)c2cn(C)c(=O)cc2C1=O | 3.32 µM |  | 33.6 µM | 3.33 µM | 3.91 µM | 3.35 µM | 2.19 µM | 3.74 µM | > 70.9 µM | 26.2 µM |  |  |  |  |  |  |  |  |  |  |
| C1=Nc2ccccc2Cn2nncc21 | > 100 µM | > 100 µM | > 100 µM | > 100 µM | > 100 µM |  | > 100 µM | > 100 µM | > 100 µM | > 100 µM |  |  |  |  |  |  |  |  |  |  |
| CC(C)=CC1C(COC(=O)c2ccccc2Cl)C1(C)C (centres undefined) | > 100 µM | > 100 µM | 92.6 µM | > 100 µM | 38.9 µM | > 100 µM | 49.5 µM | > 100 µM | > 100 µM | 90.2 µM |  |  |  |  |  |  |  |  |  |  |
| CC(C(=O)NCCNC(=O)CCCC(=O)N(C)O)C(=O)NCCNC(=O)CCCC(=O)N(C)O | > 100 µM | > 100 µM | > 100 µM |  | > 100 µM | > 100 µM | > 100 µM | > 100 µM | > 100 µM | > 100 µM |  |  |  |  |  |  |  |  |  |  |
| CC1=NN(c2cccc(Cl)c2)C2(C1=Cc1cccs1)C(Cl)C(=O)N2c1nc2ccccc2s1 (centres undefined) | 50.6 µM | 84.5 µM | 42.8 µM | 34.1 µM | 42.1 µM | > 100 µM | 38.2 µM | > 100 µM | 48.2 µM | 30.7 µM |  |  |  |  |  |  |  |  |  |  |
| COc1ccc(N2C(=O)C(=O)N(C)C2=O)c2ccccc12 | > 10 µM | > 10 µM | > 10 µM | > 10 µM | > 10 µM | > 10 µM | > 10 µM | > 10 µM | > 10 µM | > 10 µM |  |  |  |  |  |  |  |  |  |  |
| OCC(O)C(O)C(O)C(O)CNCCO/N=C1/C(c2c(O)[nH]c3ccccc23)=Nc2ccccc21 (centres undefined) | > 50 µM | > 50 µM | > 50 µM | 38.2 µM | 17.3 µM | 20.4 µM | 33 µM | > 50 µM | > 50 µM | 39.8 µM |  |  |  |  |  |  |  |  |  |  |
| O=S(=O)(Nc1nccs1)c1ccc([As](=O)(O)O)cc1 | > 100 µM | > 100 µM | > 100 µM | > 100 µM | > 100 µM | > 100 µM | > 100 µM | > 100 µM | > 100 µM | > 100 µM |  |  |  |  |  |  |  |  |  |  |
| O=[N+]([O-])c1ccc(Cc2nc3cc4ccccc4cc3[nH]2)cc1C(F)(F)F | 29.3 µM | 26.7 µM | > 100 µM | 26.8 µM | > 100 µM | 21 µM | 70.6 µM | 46.8 µM | 48.5 µM | 37.3 µM |  |  |  |  |  |  |  |  |  |  |
| Fc1ccc(Nc2ncc(-c3cc(F)c(Cl)cc3Cl)s2)cc1Cl | 51.5 µM | 22 µM | 31.3 µM | 7.2 µM | 96 µM | 32.5 µM | 44.3 µM | > 100 µM | 64.2 µM | 23.7 µM | 19.3 µM | 8.2 µM | 16.3 µM | 2.82 µM | 15.4 µM | 20.8 µM | 26.5 µM | 9.08 µM | 20.1 µM | 6.09 µM |
| CC(C)NC(=O)OCc1nnn2c1CCC2 | > 100 µM |  | > 100 µM | > 100 µM | > 100 µM |  | > 100 µM | > 100 µM | > 100 µM | > 100 µM |  |  |  |  |  |  |  |  |  |  |
| O=[N+]([O-])c1ccc(NNN=Nc2ccc(-c3nc4ccccc4[nH]3)cc2)c([N+](=O)[O-])c1 | > 100 µM | > 100 µM | 96.4 µM | > 100 µM | > 100 µM | > 100 µM | 61 µM | > 100 µM | > 100 µM | > 100 µM |  |  |  |  |  |  |  |  |  |  |
| Clc1ccc(C2CC(c3cccc(Nc4ccncc4)c3)=NN2c2ccccc2)cc1 (centres undefined) | 3.02 µM | 2.84 µM | 3.12 µM | 2.98 µM | 3.06 µM | 3.07 µM | 3.24 µM | 3.17 µM |  | 3.81 µM | 1.66 µM | 1.5 µM | 1.58 µM | 1.48 µM | 1.62 µM | 1.57 µM | 1.64 µM | 1.64 µM |  | 1.89 µM |
| CC(C)C(=O)Nc1ccc(-c2nc(-c3cccc(OCCN4CCOCC4)c3)c(-c3ccnc(Br)c3)[nH]2)cc1 | 94.1 µM | 7.01 µM | > 100 µM | 13.5 µM | 3.57 µM | 10 µM | 48.7 µM | > 100 µM | > 100 µM | 14.5 µM | 3.87 µM | 2.3 µM | 4.01 µM | 3.04 µM | 2.92 µM | 3.26 µM | 4.46 µM | 1.7 µM | 4.16 µM | 2.27 µM |
| COc1ccc(/C=C2\C[C@H]3[C@@H]4CC=C5C[C@@H](OC(C)=O)CC[C@]5(C)[C@H]4CC[C@]3(C)C2=O)cc1OC | > 100 µM | > 100 µM | 66.5 µM | > 100 µM | > 100 µM | > 100 µM | > 100 µM | > 100 µM | > 100 µM |  |  |  |  |  |  |  |  |  |  |  |
| N#CC(NNC(=O)c1c(Cl)c(Cl)c(Cl)c(Cl)c1-c1nc2ccc(C(=O)c3ccccc3)cc2[nH]1)c1ccccc1 (centres undefined) | > 100 µM | > 100 µM | > 100 µM | > 100 µM | 87.9 µM | 15.3 µM | 18 µM | > 100 µM | > 100 µM | > 100 µM |  |  |  |  |  |  |  |  |  |  |
